Columns and labels:
JAK2 = JAK2 (Homo sapiens (Human), UniProt O60674); assay: JAK2 PathHunter assay (prolactin response, U2OS cell line); format: cell-based; conditions: PathHunter U2OS cell line expressing JAK2, prolactin challenge; read-out: JAK-2 IC50
Protocol: JAK1 and JAK2 PathHunter Assay
4 mM stock solutions of test compounds are prepared and serially diluted in 100% DMSO. A standard curve using PF-00956980 at a top concentration of 10 mM is also prepared. High percentage effect (HPE) is defined by 10 mM PF-00956980 and 0% effect (ZPE) is defined by 100% DMSO. Plates containing 1 μl of serially diluted compound, standard and HPE/ZPE are diluted by addition of 65 μl compound diluent (PBS minus Ca^2+, minus Mg^2+ with 0.05% pluronic F127) using a Multidrop Combi. This dilutes test compounds to a top concentration of 60 μM. Final top assay concentration is 10 μM as the assay dilution factor is six. Final DMSO concentration is 0.25%.
Prolactin (Peprotech) is used for the agonist challenge. Prolactin is prepared at 40 μM in compound diluent to generate a stock solution and further diluted to 6 μM in compound diluent. A standard curve is prepared in compound diluent. Prolactin is also diluted to a concentration of 15 nM (2.5 nM fac). Antagonism of the JAK1 or JAK2 prolactin response is measured in the presence of prolactin at an approximate […], concentration for JAK1 and approximately EC100 for JAK2. […]
Assays are performed in Greiner white 384 well plates. […] Luminescence signal is read using an Envision. Test compound data are expressed as percentage inhibition defined by HPE and ZPE values for each plate. […]

[1] = tested on: pYSTAT5 in PBMC lymphocytes; assay: hrIL2/haCD3 stimulated pYSTAT5 in PBMC lymphocytes; format: cell-based; conditions: rhIL2 stimulated pYSTAT5, human PBMC lymphocytes
Protocol: (§1) Isolation of human Peripheral Blood Mononuclear Cells (PBMC)
Peripheral venous blood from healthy volunteers of either sex was collected into 50 ml centrifuge tubes (Corning) containing 1 ml of 5 mg/ml heparin (Sigma H3400) in distilled water. The heparininsed blood was diluted using an equal volume of sterile Dulbeccos phosphate buffered saline (PBS: Invitrogen 14190) before decanting into 50 ml Leucosep tubes (Sigma A0561). The Leucosep tubes were centrifuged at 400 g for 30 min at room temperature and the buffycoat at the Ficoll:Plamsa interface collected into clean centrifuge tubes and the volum made up to 50 ml using PBS and centrifuging at 200 g for 10 min at room temperature. The supernatent was discarded and the pellet resuspended in assay media (Dulbeccos Modified Essential Medium (DMEM: Invitrogen 11971025) containing 5% Foetal Bovine Serum, 100 U/mIpenicilin/100 μg/ml streptomycin (Sigma P4458) at 2×10^6 lymphocytes per ml for IFNγ experiments and at 1×10^6 lymphocytes per ml for the pYSTAT5 experiments.
hrIL2/haCD3 Stimulated pYSTAT5 in PBMC Lymphocytes
90 μl of PBMC cell suspension was added to each well of a 96 well plate (Corning-Costar 3598) along with 10 μl of test compound dilution giving a final assay concentration range of 0.03 nM to 1 μM in half log increments. […] Plates were read the next day on a FACS Canto (Becton Dickinson). […]

[2] = tested on: pYSTAT5 in PBMC lymphocytes; assay: Duration of action (DoA) after washout, pYSTAT5 in PBMC lymphocytes; format: cell-based, human; conditions: incubated at approximate IC80 for 1 h, then washed
Protocol: 90 μl of PBMC cell suspension was added to each well of a 96 well plate (Corning-Costar 3598) along with 10 μl of test compound dilution giving a final assay concentration range of 0.03 nM to 1 μM in half log increments. The plates were incuated at 37° C., in […] for 1 h before 10 μl rhIL2 (3 μg/ml final assay concentration) was added to appropriate wells and the plates incubated at the stated conditions for a further 15 min. 25 μl of 20% formaldehyde (Tousimis) was added to all wells and the plates left at room temperature for 10 min prior to centrifugation at 400 g for 4 min at room temperature. 200 μl PBS was added to each well and centrifugation repeated as just described. The supernatent was removed and 50 μl of a 1:50 dilution of Mouse anti-human CD3 (BD Biosciences 555329) in 0.1% BSA (Sigma A7906)/PBS added to each well (excluding control wells) and the plates incubated at room temperature in the dark for 30 min. […] Plates were read the next day on a FACS Canto (Becton Dickinson). […]
For determination of compound duration of action (DoA) cells were incubated with compound at an approximate IC80 concentration for 1 h before being washed by cenrifugation and resuspension in assay media without compound. […] DoA was calculated as the time taken for the inhibition to reverse by 50% (T50%)

[3] = tested on: IFNγ production in human isolated PBMC; assay: hrIL2/haCD3 stimulated IFNγ production in human isolated PBMC; format: cell-based; conditions: IL-2/aCD3 stimulated IFNγ, 18 h
Protocol: Functional Assessment of JAK Inhibitory Potency Using hrIL-2 and haCD3 stimuated IFNγ Production in Human Isolated PBMC.
as §1
Peripheral venous blood from healthy volunteers of either sex was collected into 50 ml centrifuge tubes (Corning) containing 1 ml of 5 mg/ml heparin (Sigma H3400) in distilled water. The heparininsed blood was diluted using an equal volume of sterile Dulbeccos phosphate buffered saline (PBS: Invitrogen 14190) before decanting into 50 ml Leucosep tubes (Sigma A0561). […]
180 μl of PBMC cell suspension was added to each well of a sterile 96 well, flat bottomed plate (Corning-Costar 3598). […] 100 μl supernatent was collected, diluted 1:4 and IFNγ content determined using a commercially available IFNγ ELISA kit (Invitrogen CHC1233) as per the manufacturer's instructions. Absorbances were measured using a Spectramax 190/250 plate reader (Molecular Devices). The IFNγ concentration of test wells was expressed as % of the IFNγ concentration produced in wells exposed to IL-2/aCD3 in the absence of test compound, and IC50 values determined using a 4 parameter curve fit.

JAK1/3 = JAK1/3 whole cell reporter gene assay (IL-4 stimulated STAT6-beta-lactamase reporter); format: cell-based; conditions: Cellsensor STAT6-bla-RA-1 cell line, CD40 ligand and IL-4 stimulated
Protocol: JAK1/3 Whole Cell Reporter Gene Assay
4 mM stock solutions of test compounds are prepared and serially diluted in 100% DMSO. A standard curve using PF-00956980 at a top concentration of 10 mM is also prepared. High percentage effect (HPE) is defined by 10 mM PF-00956980 and 0% effect (ZPE) is defined by 100% DMSO. Plates containing 1 μl of serially diluted compound, standard and HPE/ZPE are diluted by addition of 39 μl assay media (Optimem with 100 uM NEAA, 10 uM sodium pyruvate and 100 U penicillin/100 ug streptomycin (Invitrogen)) using a Multidrop Combi. This dilutes test compounds to a top concentration of 100 μM. Final top assay concentration is 10 μM as the assay dilution factor is ten. Final DMSO concentration is 0.25%.
CD40 (Invitrogen) is prepared at 0.1 mg/ml in PBS minus Ca^2+, minus Mg^2+. The concentration of CD40 required for activation is predetermined by CD40 titration with the cell line. […]
Assays are performed in Greiner 384 well black polypropylene clear bottomed plates. The Invitrogen Cellsensor STATE-bla-RA-1 cell line is thawed, counted and resuspended at 1.88×10^6 cells/ml. […] Beta lactamase fluorescence signal is read at 460 nm (blue) and 530 nm (green) and a ratio calculated using an Envision. Test compound data are expressed as percentage inhibition defined by HPE and ZPE values for each plate. […]

JAK3 enzyme = JAK3 enzyme (Homo sapiens (Human), UniProt P52333); assay: JAK3 isolated enzyme high ATP Caliper endpoint assay; format: biochemical; conditions: 400 μM ATP, read-out: JAK-3 IC50
Chain of JAK3 enzyme (P52333 whole entry): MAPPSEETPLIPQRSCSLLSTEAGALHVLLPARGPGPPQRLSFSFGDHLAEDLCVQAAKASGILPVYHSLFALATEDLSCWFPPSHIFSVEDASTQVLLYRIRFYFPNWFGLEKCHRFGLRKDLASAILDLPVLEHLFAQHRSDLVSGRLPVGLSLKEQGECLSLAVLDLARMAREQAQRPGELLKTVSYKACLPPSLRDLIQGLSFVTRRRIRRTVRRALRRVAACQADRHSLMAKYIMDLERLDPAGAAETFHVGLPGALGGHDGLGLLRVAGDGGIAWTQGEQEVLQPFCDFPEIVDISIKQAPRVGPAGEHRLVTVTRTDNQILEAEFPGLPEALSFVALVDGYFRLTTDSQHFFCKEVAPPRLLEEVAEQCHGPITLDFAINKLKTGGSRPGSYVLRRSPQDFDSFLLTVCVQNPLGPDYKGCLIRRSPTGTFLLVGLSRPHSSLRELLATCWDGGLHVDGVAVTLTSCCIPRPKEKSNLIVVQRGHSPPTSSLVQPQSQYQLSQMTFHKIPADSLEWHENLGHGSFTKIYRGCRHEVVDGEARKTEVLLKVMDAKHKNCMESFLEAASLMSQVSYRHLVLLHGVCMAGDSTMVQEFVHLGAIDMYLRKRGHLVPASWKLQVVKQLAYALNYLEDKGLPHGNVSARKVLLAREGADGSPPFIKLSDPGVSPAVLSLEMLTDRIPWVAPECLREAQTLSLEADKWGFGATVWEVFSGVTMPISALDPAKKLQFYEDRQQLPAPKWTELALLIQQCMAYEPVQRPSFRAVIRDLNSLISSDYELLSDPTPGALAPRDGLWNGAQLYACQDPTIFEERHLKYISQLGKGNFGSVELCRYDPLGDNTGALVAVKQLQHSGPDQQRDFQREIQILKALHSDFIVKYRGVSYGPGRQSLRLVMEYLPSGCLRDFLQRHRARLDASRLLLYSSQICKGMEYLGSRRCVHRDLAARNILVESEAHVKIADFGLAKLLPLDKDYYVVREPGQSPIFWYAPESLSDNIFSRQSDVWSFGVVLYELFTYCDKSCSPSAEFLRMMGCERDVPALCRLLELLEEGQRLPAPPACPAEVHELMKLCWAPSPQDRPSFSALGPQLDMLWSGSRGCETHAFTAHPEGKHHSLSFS
Protocol: JAK3 Isolated Enzyme High ATP Caliper Endpoint Assay
4 mM stock solutions of test compounds are prepared and serially diluted in 100% DMSO. […] Greiner 384 well plates are prepared containing 400 nl of serially diluted compound, standard and HPE/ZPE. Final top assay concentration is 80 μM as the assay dilution factor is fifty.
JAK3 enzyme stock is diluted to 2 nM in assay buffer (10 mM HEPES free acid pH 7.5, 10 mM HEPES free base pH 7.5, 10 mM MgCL2, 0.0005% Tween-20, 0.01% BSA) containing 2 mM DTT (all supplied by Sigma). ATP is made up at 10 mM stock in sterile water and diluted to 800 μM in assay buffer. Peptide (American peptide company) is made up at 30 mM in 100% DMSO and diluted to 3 μM in assay buffer.
Assays are performed in Greiner polypropylene 384 well plates. Following compound preparation within the plate 10 μl of enzyme in assay buffer containing DTT is added using a Multidrop Micro. Final assay concentration of enzyme is 1 nM. Compound and enzyme are pre-incubated for 60 minutes at room temperature using low evaporation lids before addition of 10 μl ATP/peptide mixture in assay buffer using a Multidrop Micro. […] Plates are foil sealed and incubated for a further 60 minutes at room temperature. Stop solution is added to the plates (20 μl/well) using a Multidrop Micro and plates are loaded onto the Caliper EZReader II. Data is generated by the shift in mobility of non-phosphorylated peptide substrates and phosphorylated products by electrophoresis within a chip and detected via LED induced fluorescence. Data is analysed using LabChip EZReader software which calculates the relative heights of the substrate and product peaks and reports product/product plus substrate peak ratio. Test compound data are subsequently expressed as percentage inhibition defined by HPE and ZPE values for each plate. Percentage inhibition in the presence of test compound is plotted against compound concentration on a log scale to determine an IC50 from the resultant sigmoid curve.

Chain of JAK2 (O60674 whole entry): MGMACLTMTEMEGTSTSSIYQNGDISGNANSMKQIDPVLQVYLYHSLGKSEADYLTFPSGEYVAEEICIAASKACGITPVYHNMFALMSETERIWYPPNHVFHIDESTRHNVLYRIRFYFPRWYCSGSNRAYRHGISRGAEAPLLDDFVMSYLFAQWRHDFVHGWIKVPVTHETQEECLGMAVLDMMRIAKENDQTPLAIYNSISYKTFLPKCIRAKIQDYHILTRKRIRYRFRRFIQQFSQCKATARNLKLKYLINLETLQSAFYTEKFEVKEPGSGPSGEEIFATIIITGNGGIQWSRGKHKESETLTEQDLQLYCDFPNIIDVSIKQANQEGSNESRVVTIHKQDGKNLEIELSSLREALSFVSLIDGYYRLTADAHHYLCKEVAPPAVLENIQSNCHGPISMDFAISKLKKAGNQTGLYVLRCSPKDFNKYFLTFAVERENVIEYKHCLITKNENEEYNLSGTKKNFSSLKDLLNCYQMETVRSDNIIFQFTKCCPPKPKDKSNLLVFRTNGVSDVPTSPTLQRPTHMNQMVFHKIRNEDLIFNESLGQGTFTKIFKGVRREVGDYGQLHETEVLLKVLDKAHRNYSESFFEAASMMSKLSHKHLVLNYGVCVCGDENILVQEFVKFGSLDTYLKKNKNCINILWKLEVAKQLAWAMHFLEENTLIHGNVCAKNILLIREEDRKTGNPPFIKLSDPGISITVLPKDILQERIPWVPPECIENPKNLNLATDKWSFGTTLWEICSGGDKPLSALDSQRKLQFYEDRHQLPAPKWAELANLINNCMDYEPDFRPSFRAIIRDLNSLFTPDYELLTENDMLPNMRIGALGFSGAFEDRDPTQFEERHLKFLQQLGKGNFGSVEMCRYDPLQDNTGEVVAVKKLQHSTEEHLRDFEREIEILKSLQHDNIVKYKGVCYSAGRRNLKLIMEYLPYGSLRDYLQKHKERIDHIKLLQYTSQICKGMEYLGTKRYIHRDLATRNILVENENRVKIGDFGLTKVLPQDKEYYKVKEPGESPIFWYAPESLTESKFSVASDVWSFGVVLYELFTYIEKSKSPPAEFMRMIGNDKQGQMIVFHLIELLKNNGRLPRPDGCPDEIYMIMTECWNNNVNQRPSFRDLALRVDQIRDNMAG

## CCc1cc(O)c(F)cc1-c1ccc2c(-c3nc4c([nH]3)CCN(C(=O)c3cnc(N5CCCCC5)cn3)C4)n[nH]c2c1 [Example 4, {2-[6-(2-Ethyl-5-fluoro-4-hydroxy-phenyl)-1H-indazol-3-yl]-1,4,6,7-tetrahydro-imidazo[4,5-c]pyridin-5-yl}-(5-piperidin-1-yl-pyrazin-2-yl)-methanone]
JAK2
  IC50: 176 nM
[1]
  IC50: 45 nM
[2]
  DoA (time taken for the inhibition to reverse by 50%, T50%): > 8.8 h
[3]
  IC50: 70 nM
JAK1/3
  IC50: 140 nM
JAK3 enzyme
  IC50: 0.5 nM

Reference: patent US8895544B2, “Indazoles” (Pfizer Limited, priority 2011, dated 2014)
